Experimental data from the supplement of paper PMC11208160.

Test: recombinant UMI read abundance after kanamycin selection (control-corrected) (log10(CPM+1)); higher = more efficient recombination; extreme values may be limits of the assay; sequences stand for … in AGTGCAGAGAAAATCGGCCAGTTTTCTCTGCCTGCAGTCCGCATGCCGTGGGACCCCTTGGGTTCTAACCTGTTGCCTAGATTTATGCAGCGGACTGCCTTTCTCCCAAAGTGATAAACCGG…AGGTTGGTTTCACT; site = the 11-nt donor
Procedure, shortened: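 Sequencing read counts were converted to CPM, averaged over two replicates and scaled by control-derived factors. Results are given as log10(CPM+1). The reads covered the donor–target junction of recombinant UMIs from a pooled Escherichia coli screen of donor and donor-binding-loop pairs for the IS621 bridge recombinase.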
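Further: IS621 bridge recombinase in Escherichia coli cells against a fixed T5 target plasmid.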

Point of comparison: “TTAGATGCATGGACCGGTTTTCCCGGTAATCCGTATTTGTG (site TTAGATGCTCA)”, “recombinant UMI read abundance (log10)” value 1.52. Against it:
- TGTTCCCCATGGACCGGTTTTCCCGGTAATCCGTATTTGTA (site TGTTCCCCTTC) — lower, 0.00924
- TGTTCCCCATGGACCGGTTTTCCCGGTAATCCGTATTTGTA (site TGTTCCCCTTG) — lower, 0.00318
- TGTTCCCCATGGACCGGTTTTCCCGGTAATCCGTATTTGTA (site TGTTCCCCTTT) — lower, 0.0256
- TGTTCCCCATGGACCGGTTTTCCCGGTAATCCGTATTTGTA (site TGTTCCGCTTA) — lower, 0.0259
- TGTTCCCCATGGACCGGTTTTCCCGGTAATCCGTATTTGTA (site TGTTCCTCTTA) — lower, 0.105
- TGTTCCCCATGGACCGGTTTTCCCGGTAATCCGTATTTGTA (site TGTTCGCCTTA) — lower, 0.0106
- TGTTCCCCATGGACCGGTTTTCCCGGTAATCCGTATTTGTA (site TGTTCTCCTTA) — lower, 0.0643
- TGTTCCCCATGGACCGGTTTTCCCGGTAATCCGTATTTGTA (site TGTTGCCCTTA) — lower, 0.0058
- TGTTCCCCATGGACCGGTTTTCCCGGTAATCCGTATTTGTA (site TGTTTCCCTTA) — lower, 0.381
- TGTTCCCCATGGACCGGTTTTCCCGGTAATCCGTATTTGTA (site TTTTCCCCTTA) — lower, 0.0217
- TGTTGCCCATGGACCGGTTTTCCCGGTAATCCGTATTTGTA (site TGTTACCCTTA) — lower, 0.032
- TGTTGCCCATGGACCGGTTTTCCCGGTAATCCGTATTTGTA (site TGTTCCCCTTA) — lower, 0.324
- TGTTGCCCATGGACCGGTTTTCCCGGTAATCCGTATTTGTA (site TGTTGCCCTTA) — lower, 0.0196
- TGTTGCCCATGGACCGGTTTTCCCGGTAATCCGTATTTGTA (site TGTTTCCCTTA) — lower, 0.0108
- TGTTGTTCATGGACCGGTTTTCCCGGTAATCCGTATTTGAA (site TGTTGTTCTTT) — lower, 0.472
- TTAACTGCATGGACCGGTTTTCCCGGTAATCCGTATTTGTG (site TTAACTGCTCA) — lower, 0.697
- TTAACTGCATGGACCGGTTTTCCCGGTAATCCGTATTTGTG (site TTACCTGCTCA) — lower, 0.00413
- TTAACTGCATGGACCGGTTTTCCCGGTAATCCGTATTTGTG (site TTAGCTGCTCA) — lower, 0.00337
- TTAACTGCATGGACCGGTTTTCCCGGTAATCCGTATTTGTG (site TTATCTGCTCA) — lower, 0.0133
- TTAAGCCCATGGACCGGTTTTCCCGGTAATCCGTATTTGGT (site TTAAGCCCTAC) — lower, 0.174
- TTAATTCCATGGACCGGTTTTCCCGGTAATCCGTATTTGTT (site TTAATTCCTAA) — lower, 0.0021
- TTACAATCATGGACCGGTTTTCCCGGTAATCCGTATTTGGG (site TTACAATCTCC) — lower, 0
- TTACATTCATGGACCGGTTTTCCCGGTAATCCGTATTTGAC (site TTACATTCTGT) — within 0.2 log units, 1.68
- TTACCATCATGGACCGGTTTTCCCGGTAATCCGTATTTGAC (site TTACCATCTGT) — higher, 2.16
- TTACCTTCATGGACCGGTTTTCCCGGTAATCCGTATTTGTC (site TTACCTTCTGA) — lower, 0.519
- TTAGAAACATGGACCGGTTTTCCCGGTAATCCGTATTTGAT (site TTAGAAACTAT) — higher, 2.51
- TTAGAGGCATGGACCGGTTTTCCCGGTAATCCGTATTTGGA (site TTAGAGGCTTC) — lower, 0.701
- TTAGATGCATGGACCGGTTTTCCCGGTAATCCGTATTTGTG (site TTAGCTGCTCA) — lower, 0.0227
- TTAGATGCATGGACCGGTTTTCCCGGTAATCCGTATTTGTG (site TTAGGTGCTCA) — lower, 0.00706
- TTAGATGCATGGACCGGTTTTCCCGGTAATCCGTATTTGTG (site TTAGTTGCTCA) — lower, 0.00838
- TTAGCCGCATGGACCGGTTTTCCCGGTAATCCGTATTTGTG (site TTAGCAGCTCA) — lower, 0.108
- TTAGCCGCATGGACCGGTTTTCCCGGTAATCCGTATTTGTG (site TTAGCCGCTCA) — lower, 0.564
- TTAGCCGCATGGACCGGTTTTCCCGGTAATCCGTATTTGTG (site TTAGCGGCTCA) — lower, 0.0427
- TTAGCCGCATGGACCGGTTTTCCCGGTAATCCGTATTTGTG (site TTAGCTGCTCA) — lower, 0.00693
- TTAGCTCCATGGACCGGTTTTCCCGGTAATCCGTATTTGTG (site TTAGCTACTCA) — lower, 0.00349
- TTAGCTCCATGGACCGGTTTTCCCGGTAATCCGTATTTGTG (site TTAGCTCCTCA) — lower, 0.0123
- TTAGCTCCATGGACCGGTTTTCCCGGTAATCCGTATTTGTG (site TTAGCTGCTCA) — lower, 0.00795
- TTAGCTCCATGGACCGGTTTTCCCGGTAATCCGTATTTGTG (site TTAGCTTCTCA) — lower, 0.0128
- TTAGCTGCATGGACCGGTTTTCCCGGTAATCCGTATTTGAG (site TTAGCTGCTCA) — lower, 0.025
- TTAGCTGCATGGACCGGTTTTCCCGGTAATCCGTATTTGAG (site TTAGCTGCTCC) — lower, 0.0699
- TTAGCTGCATGGACCGGTTTTCCCGGTAATCCGTATTTGAG (site TTAGCTGCTCG) — lower, 0.0144
- TTAGCTGCATGGACCGGTTTTCCCGGTAATCCGTATTTGAG (site TTAGCTGCTCT) — lower, 0.839
- TTAGCTGCATGGACCGGTTTTCCCGGTAATCCGTATTTGCG (site TTAGCTGCTCA) — lower, 0.00643
- TTAGCTGCATGGACCGGTTTTCCCGGTAATCCGTATTTGCG (site TTAGCTGCTCC) — lower, 0.0194
- TTAGCTGCATGGACCGGTTTTCCCGGTAATCCGTATTTGCG (site TTAGCTGCTCG) — within 0.2 log units, 1.41
- TTAGCTGCATGGACCGGTTTTCCCGGTAATCCGTATTTGCG (site TTAGCTGCTCT) — lower, 0.00813
- TTAGCTGCATGGACCGGTTTTCCCGGTAATCCGTATTTGTA (site TTAGCTGCTAA) — lower, 0.0184
- TTAGCTGCATGGACCGGTTTTCCCGGTAATCCGTATTTGTA (site TTAGCTGCTCA) — lower, 0.026
- TTAGCTGCATGGACCGGTTTTCCCGGTAATCCGTATTTGTA (site TTAGCTGCTGA) — lower, 0
- TTAGCTGCATGGACCGGTTTTCCCGGTAATCCGTATTTGTA (site TTAGCTGCTTA) — within 0.2 log units, 1.35
- TTAGCTTCATGGACCGGTTTTCCCGGTAATCCGTATTTGTG (site TTAGCTACTCA) — lower, 0.0149
- TTAGCTTCATGGACCGGTTTTCCCGGTAATCCGTATTTGTG (site TTAGCTCCTCA) — lower, 0.012
- TTAGCTTCATGGACCGGTTTTCCCGGTAATCCGTATTTGTG (site TTAGCTGCTCA) — lower, 0.00609
- TTAGCTTCATGGACCGGTTTTCCCGGTAATCCGTATTTGTG (site TTAGCTTCTCA) — lower, 0.478
- TTAGGTTCATGGACCGGTTTTCCCGGTAATCCGTATTTGGC (site TTAGGTTCTGC) — higher, 2.53
- TTAGTATCATGGACCGGTTTTCCCGGTAATCCGTATTTGAG (site CTAGTATCTGT) — lower, 0
- TTAGTATCATGGACCGGTTTTCCCGGTAATCCGTATTTGAG (site TTAGTATCTCT) — within 0.2 log units, 1.66
- TTAGTCTCATGGACCGGTTTTCCCGGTAATCCGTATTTGAC (site CTAGTATCTGT) — lower, 0
- TTAGTCTCATGGACCGGTTTTCCCGGTAATCCGTATTTGAC (site TTAGTCTCTGT) — higher, 3.02
- TTATCTGCATGGACCGGTTTTCCCGGTAATCCGTATTTGTG (site TTAACTGCTCA) — lower, 0.00525
- TTATCTGCATGGACCGGTTTTCCCGGTAATCCGTATTTGTG (site TTACCTGCTCA) — lower, 0.0587
- TTATCTGCATGGACCGGTTTTCCCGGTAATCCGTATTTGTG (site TTAGCTGCTCA) — lower, 0.00464
- TTATCTGCATGGACCGGTTTTCCCGGTAATCCGTATTTGTG (site TTATCTGCTCA) — higher, 1.73
- TTATGGTCATGGACCGGTTTTCCCGGTAATCCGTATTTGGC (site TTATGGTCTGC) — higher, 1.88
- TTATGTACATGGACCGGTTTTCCCGGTAATCCGTATTTGGG (site TTATGTACTCC) — lower, 0.0157
- TTATTGTCATGGACCGGTTTTCCCGGTAATCCGTATTTGCA (site TTATTGTCTTG) — higher, 2.35
- TTCAAGTCATGGACCGGTTTTCCCGGTAATCCGTATTTGTA (site TTCAAGTCTTA) — lower, 0.621
- TTCACGGCATGGACCGGTTTTCCCGGTAATCCGTATTTGTC (site TTCACGGCTGA) — lower, 0.624
- TTCAGTCCATGGACCGGTTTTCCCGGTAATCCGTATTTGAT (site TTCAGTCCTAT) — lower, 0
- TTCATTACATGGACCGGTTTTCCCGGTAATCCGTATTTGAT (site TTCATTACTAT) — lower, 0
- TTCCAAGCATGGACCGGTTTTCCCGGTAATCCGTATTTGAG (site ATCCAAGCTCT) — lower, 0
- TTCCAAGCATGGACCGGTTTTCCCGGTAATCCGTATTTGAG (site CTCCAAGCTCT) — lower, 0.00912
- TTCCAAGCATGGACCGGTTTTCCCGGTAATCCGTATTTGAG (site GTCCAAGCTCT) — lower, 0.0126
- TTCCAAGCATGGACCGGTTTTCCCGGTAATCCGTATTTGAG (site TTCCAAGCTCT) — lower, 0.0285
